Assay results published in US12414958B2, “Medicament and use thereof for treating bacterial infections involving biofilm” (Debiopharm International S.A., priority 2019, dated 2025).

Experiments:
MSSA ATCC 29213 = experiment: Mouse tissue cage model of staphylococcal biofilm infection, MSSA (Example 4); format: in vivo, Staphylococcus aureus; details: 24-h biofilm MSSA ATCC 29213; 11-d treatment; cages explanted day 14
Procedure: After the incubation, tubes were vortexed again and bacterial regrowth was assessed visually. […] The efficacy of treatment against adherent bacteria is expressed as the cure rate (in percent), defined as the number of cages without growth divided by the total number of cages in the individual treatment group.

ATCC 43300 MRSA strain = experiment: In vivo murine model of catheter associated infection, 24 h and 72 h MRSA biofilms; parameters: species or system Staphylococcus aureus; details: for mean reduction of the initial MRSA load / CR (%) cure rate: 5.5-day treatment; for mean reduction of the initial MRSA load: given as positive reduction; for Log10 CFU/g of catheter (D 6) Mean ± SEM / ΔLog10 CFU/g of catheter from (D 1) Mean ± SEM: 5.5-day treatment (D1-D6); for Log10 CFU/g of catheter (D 6) Mean ± SEM / ΔLog10 CFU/g of catheter from (D 1) Mean ± SEM / Log10 CFU/g of catheter (D 8) Mean ± SEM / ΔLog10 CFU/g of catheter from (D 3) Mean ± SEM: BALB/c mice; for Log10 CFU/g of catheter (D 6) Mean ± SEM / Log10 CFU/g of catheter (D 8) Mean ± SEM: doses as in Table 2; for ΔLog10 CFU/g of catheter from (D 1) Mean ± SEM: change from baseline D 1; for CR (%) cure rate: percentage of mice without catheter-associated bacteria; for Log10 CFU/g of catheter (D 8) Mean ± SEM / ΔLog10 CFU/g of catheter from (D 3) Mean ± SEM: 5.5-day treatment (D3-D8); for ΔLog10 CFU/g of catheter from (D 3) Mean ± SEM: change from baseline D 3
Procedure: Two experimental settings were used in this study to evaluate the treatment efficacies against early (24h) and/or mature (72h) MRSA catheter formed biofilms. Briefly, mice were anaesthetised by an IP injection of about 120 μl a mix of ketamine (50 mg/kg) and xylazine (10 mg/kg) (4 mL ketamine+2 mL xylazine+10 mL saline). Flank on the right side was shaved and then disinfected by 3 consecutive applications of betadine. A cutaneous and then subcutaneous (SC) incisions of 0.2 cm were made under sterile conditions and a 1 cm segment of polyurethane catheter (Ref. No. ES-04730 Arrow international) cut into 2 longitudinal fragments was inserted SC (into the incision and then pushed further under the skin, about 2 cm away from the incision). The inoculation was done simultaneously by placing 50 μl of the bacterial culture onto the catheter (10^6 CFU of ATCC 43300 MRSA strain). The incision was stitched up and disinfected. The day of the infection was referred to as Day0 (D0). To ensure that the study was conducted in sterile conditions from the start to the end of the experiment, non-infected mice (sentinel group) were included. Treatments started either on D1 or D3 post infection, corresponding to early (24h) or more mature (72h) catheter formed biofilms, respectively, and lasted for 5.5 days (D1-D6) or (D3-D8). In both 24 h and 72h biofilm settings, two groups of infected non-treated animals (Vehicle controls) were evaluated for bacterial counts: at baseline (24h or D1 [for 24-h biofilm] and 72h or D3 [for 72-h biofilm] post infection, i.e. time points corresponding to treatments initiations) and at the termination of treatment duration (D6 [for 24-h biofilm] and D8 [for 72-h biofilm] post infection). Post treatment CFUs were counted on D6 or D8 and results were expressed as Log10 CFU/g of catheter (Mean±SEM). The limit of detection was determined as being 1 Log10 CFU/g of catheter. Changes of CFU/g of catheter (Δ Log10) from the baseline (D1 or D3 for 24-h and 72-h biofilm, respectively) and cure rates (corresponding to the percentage of mice without catheter-associated bacteria within a given treatment group) were also calculated. In vivo induction of antibiotic-resistant bacteria was analysed for all tested antibiotics.
Antibiotics doses were selected according to the effective doses in animals, which approximated the therapeutic human equivalent doses (HED) (Table 1).
Mice received antibiotics on D1, D2, D3, D4, D5 and D6 (only one administration at D6) or D3, D4, D5, D6, D7 and D8 (only one administration at D8). All antibiotics were administered BID IP, except Debio 1450 BES and Vancomycin, which were respectively given PO and SC. Daptomycin was tested as a once daily regimen to avoid tolerability issues. The antibiotics daily dosing was performed with a 10-12 hours interval between the two administrations. For combination therapy, antibiotics were administered simultaneously every 10-12 hours (the time required between the injection of the first antibiotic and the injection of the second antibiotic was less than 30 seconds per mouse).
In each sub-study, animals were randomly assigned to the antibiotic therapies or vehicle controls groups. Dose volumes were calculated according to individual body weight of each animal.
After blood collection, animals were sacrificed by cervical dislocation following anaesthesia. Two fragments of catheter per mouse were collected and were used for bacterial enumeration after sonication. Each fragment of catheter was individually washed under aseptic conditions in an Eppendorf tube (3 successive washing steps with 300 μl sterile saline). After the last wash, the catheter was suspended in 1 mL sterile saline, put in an ultrasonic bath (Advantage Lab) for 3 minutes at room temperature before being vigorously vortexed in order to detach all adherent bacteria from the catheter. Several successive dilutions of this suspension (undiluted, 10-2, […]) were cultured onto Chapman agar plates for 48 h at 37° C. […]

| SMILES | Cure rate (%) (MSSA ATCC 29213) | mean reduction of the initial MRSA load (ATCC 43300 MRSA strain; 24 h biofilm) | mean reduction of the initial MRSA load (ATCC 43300 MRSA strain; 72 h biofilm) | Log10 CFU/g of catheter (D 6) Mean ± SEM (ATCC 43300 MRSA strain; Biofilm (24 h)) | ΔLog10 CFU/g of catheter from (D 1) Mean ± SEM (ATCC 43300 MRSA strain; Biofilm (24 h)) | CR (%) cure rate (ATCC 43300 MRSA strain; Biofilm (24 h)) | Log10 CFU/g of catheter (D 8) Mean ± SEM (ATCC 43300 MRSA strain; Biofilm (72 h)) | ΔLog10 CFU/g of catheter from (D 3) Mean ± SEM (ATCC 43300 MRSA strain; Biofilm (72 h)) | CR (%) cure rate (ATCC 43300 MRSA strain; Biofilm (72 h)) |
| --- | --- | --- | --- | --- | --- | --- | --- | --- | --- |
| CO[C@H]1/C=C/O[C@@]2(C)Oc3c(C)c(O)c4c(O)c(c(/C=N/N5CCN(C)CC5)c(O)c4c3C2=O)NC(=O)/C(C)=C\C=C\[C@H](C)[C@H](O)[C@@H](C)[C@@H](O)[C@@H](C)[C@H](OC(C)=O)[C@@H]1C [Rifampicin] | 100% | 4.17±0.072 Log10 CFU/g of catheter | 2.98±0.113 Log10 CFU/g of catheter | 2.50 ± 0.072 Log10 CFU/g of catheter | −4.17 ± 0.072 Log10 CFU/g of catheter | 39% | 3.80 ± 0.113 Log10 CFU/g of catheter | −2.98 ± 0.113 Log10 CFU/g of catheter | 8% |
| Cc1c(CN(C)C(=O)/C=C/c2cnc3c(c2)CCC(=O)N3COP(=O)(O)O)oc2ccccc12 [Debio 1450, {6-[(1E)-3-{methyl [(3-methyl-1-benzofuran-2-yl)methyl]amino}-3-oxoprop-1-en-1-yl]-2-oxo-3,4-dihydro-1,8-naphthyridin-1 (2H)-yl} methyl dihydrogen phosphate] | 14.3% | – | – | 4.31 ± 0.109 Log10 CFU/g of catheter | −2.35 ± 0.109 Log10 CFU/g of catheter | 8% | 5.75 ± 0.069 Log10 CFU/g of catheter | −1.03 ± 0.069 Log10 CFU/g of catheter | 0% |
| CCCCCCCCCC(=O)N[C@@H](Cc1c[nH]c2ccccc12)C(=O)N[C@H](CC(N)=O)C(=O)N[C@@H](CC(=O)O)C(=O)N[C@@H]1C(=O)NCC(=O)N[C@@H](CCCN)C(=O)N[C@@H](CC(=O)O)C(=O)N[C@H](C)C(=O)N[C@@H](CC(=O)O)C(=O)NCC(=O)N[C@H](CO)C(=O)N[C@@H]([C@H](C)CC(=O)O)C(=O)N[C@@H](CC(=O)c2ccccc2N)C(=O)O[C@@H]1C [Daptomycin] | – | – | – | 3.02 ± 0.110 Log10 CFU/g of catheter | −3.64 ± 0.110 Log10 CFU/g of catheter | 25% | 5.42 ± 0.104 Log10 CFU/g of catheter | −1.37 ± 0.104 Log10 CFU/g of catheter | 0% |
